Literature values, collected in patent US20090247493A1, “Regimens for Treatment of Conditions Related to Estrogen Deficiency” (Duramed Pharmaceuticals, Inc., priority 2006, published 2009).

Conditions: in a contraceptive regimen

| SMILES | dose roughly equivalent to 30 μg of ethinyl estradiol |
| --- | --- |
| C[C@]12CC[C@@H]3c4ccc(O)cc4CC[C@H]3[C@@H]1CC[C@@H]2O [17β-estradiol] | about 2,000 μg |
| C#C[C@]1(O)CC[C@H]2[C@@H]3CCc4cc(OC)ccc4[C@H]3CC[C@@]21C [mestranol] | about 60 μg |
